Experiments:
isolated perfused lungs = assay: PAP in isolated perfused lungs (ex vivo lung perfusion); design: species or system mouse; conditions: NS309 1 μmol/L
Method: PAP was evaluated using an IPL-1 ex vivo murine lung perfusion system (Harvard Apparatus; Holliston; MA; USA) as previously described (22, 23). Briefly, mice were anesthetized with isoflurane, after which a tracheostomy was performed, and animals were ventilated with room air at 150 strokes/min and a stroke volume of […]. […] The main pulmonary artery was cannulated through the right ventricle, and the left ventricle was tube-vented through a small incision at the apex of the heart. The lungs were then perfused at a constant flow rate of 0.5 mL min 1 with Krebs-Henseleit buffer (11 mmol/L glucose; 1.2 mmol/L MgSO4; 1.2 mmol/L KH2PO4; 4.7 mmol/L KCl; 118 mmol/L NaCl; 1.25 mmol/L CaCl2), and 25 mmol/L […]). The perfusate buffer and isolated lungs were maintained at 37° C. using a circulating water bath. Once properly perfused and ventilated, the isolated lungs were maintained on the system for a 10-minute equilibration period, after which hemodynamic and pulmonary parameters were recorded using the PULMODYN data acquisition system (Hugo Sachs Elektronik; Breisgau; Germany).

[1] = system: IK/SK channels in SMCs from PAs; assay: Whole-cell patch-clamp in freshly isolated SMCs from small PAs; format: cell-based, mouse; conditions: NS309 1 μmol/L
Method: For SMC isolation (27), arterial segments were transferred to a 12×75 mm borosilicate glass culture tube containing 1 mL dissociation solution (145 mmol/L NaCl; 4 mmol/L KCl; 1 mmol/L MgCl2; 10 mmol/L HEPES; 0.05 mmol/L CaCl2), 10 mmol/L glucose; pH 7.3) and 0.5 mg/mL bovine serum albumin (BSA) and incubated for 10 minutes at room temperature (˜24° C.). The solution was then replaced with 1 mL dissociation solution containing 1 mg/mL papain (Sigma Aldrich) and 0.5 mg/mL dithiothreitol (Sigma Aldrich), and incubation was continued at 37° C. for 20 minutes. […]
Whole-cell currents were measured at room temperature using conventional whole-cell patch-clamp electrophysiology. […] The pipette solution for conventional patch clamp consisted of 10 mmol/L HEPES, 123.2 mmol/L KCl, 10 mmol/L NaCl, 5.5 mmol/L MgCl2, 0.2 mmol/L CaCl2) and 5 mmol/L HEDTA (adjusted to pH 7.2 with 16.8 mm KOH) and contained 3 μm free-Ca^2+ and 1 mmol/L free-Mg^2+, as calculated using the Max-Chelator program (Chris Patton; Stanford University; Stanford; CA; USA). […] Data were acquired using a Multiclamp 700B amplifier connected to a Digidata 1550B system and analyzed using Clampfit 11.1 software (Molecular Devices, San Jose, CA, USA).
NS309-induced ionic currents were measured in freshly isolated SMCs (FIG. 4A) from PAs in whole-cell patch-clamp experiments (FIGS. 4B and 4C).

## O=C1Nc2c(ccc(Cl)c2Cl)C1=NO [NS309, 6,7-dichloro-1H-indole-2,3-dione 3-oxime]
Isolated perfused lungs; N mice
  PAP in isolated perfused lungs, N mice: not in N mice
Isolated perfused lungs; Su+CH mice
  PAP in isolated perfused lungs, Su+CH mice: decreased
[1]
  Outward currents at 0 mV in SMCs, N vs Su+CH: not different between SMCs from PAs of N and Su+CH mice
